Measured values taken from patent US20240425464A1, “Substituted Monohydrazides as Potent Antifungal Agents” (University of Kentucky Research Foundation, priority 2023, published 2024).
≈ marks a conversion by molar mass, not a printed value. Read-outs that look alike come from different tables or passages of the source.

Columns and labels:
Test in all cases: MIC determination by in vitro antifungal assay
Type in all cases: cell-based, Candida auris
C. auris AR Bank #383 = tested on: C. auris AR Bank #383
Procedure: (§1) The antifungal agent amphotericin B (AmB) was purchased from VWR (Radnor PA, USA). AmB was dissolved in DMSO at a final concentration of 5 mg/mL and was stored at −20° C., protected from light. Candida albicans American Type Culture Collection (ATCC) 10231 (strain A), C. albicans ATCC 64124 (B), and C. albicans ATCC MYA-2876 (C) were obtained from Utah State University. C. albicans ATCC 90819 (D), C. albicans ATCC MYA-2310 (E), C. albicans ATCC MYA-1237 (F), C. albicans ATCC MYA-1003 (G), Candida glabrata ATCC 2001 (H), Candida krusei ATCC 6258 (I), Candida parapsilosis ATCC 22019 (J), Cryptococcus neoformans ATCC MYA-895 (M), Aspergillus terreus ATCC MYA-3633 (N), and Aspergillus flavus ATCC MYA-3631 (0) were obtained from the American Type Culture Collection (ATCC; Manassas, VA, USA). Aspergillus nidulans ATCC 38163 (P) was obtained from University of Kentucky. Clinically derived Aspergillus fumigatus NRRL 163 (Q), A. fumigatus NRRL 5109 (R), and A. fumigatus NRRL 6113 (S) were obtained from Northern Regional Research Laboratory (NRRL). Candida auris 384 (K), C. auris 390 (L), and fungal strains 381-400 (including 10 C. auris (AR Bank #381-390), 3 Candida duobushaemulonii (AR Bank #391, AR Bank #392, and AR Bank #394), 2 Candida haemulonii (AR Bank #393 and AR Bank #395), 1 Kodameae ohmeri (AR Bank #396), 1 C. krusei (AR Bank #397), 1 Candida lusitaniae (AR Bank #398), and 2 Saccharomyces cerevisiae strains (AR Bank #399 and AR Bank #400)) were part of a larger fungal library from the AR Bank maintained by the Centers for Disease Control and Prevention (CDC; Atlanta, GA, USA). Filamentous fungi and yeasts were cultivated at 35° C. in RPMI 1640 medium (with L-glutamine, without sodium bicarbonate, Sigma-Aldrich, St. Louis, MO) buffered to a pH of 7.0 with 0.165 M morpholinepropanesulfonic acid (MOPS) buffer (Sigma-Aldrich). For cytotoxicity assays, HepG2 and the mouse macrophage cell line J774A.1 were obtained from University of Kentucky. The human embryonic kidney cell line, HEK-293, was bought from the ATCC. Mammalian cells were grown in Dulbecco's Modified Eagle's Medium (DMEM) (from VWR) with 10% fetal bovine serum (FBS) (from VWR) and 1% Pen/Strep (from ATCC). Cell lines were cultured at 37° C. with 5% CO2 and passaged by trypsinization with 0.05% trypsin: 0.53 mM EDTA (from Sigma-Aldrich).
(§2) From the actively growing yeast culture, 100 µL were then transferred to 900 μL of RPMI 1640 medium and re-adjusted to achieve OD600 of 0.12 (˜1×10^6 CFU/mL). The cell suspension was further diluted to achieve 1:100 in RPMI 1640 medium.

C. auris AR Bank #386 = tested on: C. auris AR Bank #386
Procedure: as §1, §2

C. auris AR Bank #388 = tested on: C. auris AR Bank #388
Procedure: as §1, §2

C. auris AR Bank #387 = tested on: C. auris AR Bank #387
Procedure: as §1, §2

C. auris AR Bank #381 = tested on: C. auris AR Bank #381
Procedure: as §1, §2

C. auris AR Bank #389 = tested on: C. auris AR Bank #389
Procedure: as §1, §2

C. auris AR Bank #382 = tested on: C. auris AR Bank #382
Procedure: as §1, §2

C. auris AR Bank #385 = tested on: C. auris AR Bank #385
Procedure: as §1, §2

[1] = Candidozyma auris, C. auris AR Bank #383, read-out: MIC
[2] = Candidozyma auris, C. auris AR Bank #386, read-out: MIC
[3] = Candidozyma auris, C. auris AR Bank #388, read-out: MIC
[4] = Candidozyma auris, C. auris AR Bank #387, read-out: MIC
[5] = Candidozyma auris, C. auris AR Bank #381, read-out: MIC
[6] = Candidozyma auris, C. auris AR Bank #389, read-out: MIC
[7] = Candidozyma auris, C. auris AR Bank #382, read-out: MIC
[8] = Candidozyma auris, C. auris AR Bank #385, read-out: MIC
[9] = C. auris AR Bank # 383 (Table 2B)
[10] = C. auris AR Bank # 386 (Table 2B)
[11] = C. auris AR Bank # 388 (Table 2B)
[12] = C. auris AR Bank # 387 (Table 2B)
[13] = C. auris AR Bank # 381 (Table 2B)
[14] = C. auris AR Bank # 389 (Table 2B)
[15] = C. auris AR Bank # 382 (Table 2B)
[16] = C. auris AR Bank # 385 (Table 2B)

Row | SMILES | MIC (C. auris AR Bank #383; [1]) [µg/mL] | MIC (C. auris AR Bank #386; [2]) [µg/mL] | MIC (C. auris AR Bank #388; [3]) [µg/mL] | MIC (C. auris AR Bank #387; [4]) [µg/mL] | MIC (C. auris AR Bank #381; [5]) [µg/mL] | MIC (C. auris AR Bank #389; [6]) [µg/mL] | MIC (C. auris AR Bank #382; [7]) [µg/mL] | MIC (C. auris AR Bank #385; [8]) [µg/mL] | also measured
1 | O=C(NNc1cccc(Cl)c1)c1cnccn1 [Compound 9b] | 0.24 (≈ 0.965 µM) | ≤ 0.06 | 0.24 (≈ 0.965 µM) | 0.24 (≈ 0.965 µM) | 0.49 (≈ 1.97 µM) | 0.24 (≈ 0.965 µM) | 0.12 (≈ 0.483 µM) | 0.24 (≈ 0.965 µM) | –
2 | O=C(NNc1ccc(F)cc1)c1cccc(Br)n1 [Compound 6d] | – | – | – | – | – | – | – | – | MIC (C. auris AR Bank #383; Candidozyma auris, C. auris AR Bank # 383 (Table 2B), read-out: MIC): 1.95 µg/mL (≈ 6.29 µM); MIC (C. auris AR Bank #386; Candidozyma auris, C. auris AR Bank # 386 (Table 2B), read-out: MIC): 1.95 µg/mL (≈ 6.29 µM); MIC (C. auris AR Bank #388; Candidozyma auris, C. auris AR Bank # 388 (Table 2B), read-out: MIC): 0.98 µg/mL (≈ 3.16 µM); MIC (C. auris AR Bank #387; Candidozyma auris, C. auris AR Bank # 387 (Table 2B), read-out: MIC): 0.98 µg/mL (≈ 3.16 µM); MIC (C. auris AR Bank #381; Candidozyma auris, C. auris AR Bank # 381 (Table 2B), read-out: MIC): 1.95 µg/mL (≈ 6.29 µM); MIC (C. auris AR Bank #389; Candidozyma auris, C. auris AR Bank # 389 (Table 2B), read-out: MIC): 1.95 µg/mL (≈ 6.29 µM); MIC (C. auris AR Bank #382; Candidozyma auris, C. auris AR Bank # 382 (Table 2B), read-out: MIC): 0.98 µg/mL (≈ 3.16 µM); MIC (C. auris AR Bank #385; Candidozyma auris, C. auris AR Bank # 385 (Table 2B), read-out: MIC): 0.98 µg/mL (≈ 3.16 µM)
3 | COc1cccc(NNC(=O)c2cnccn2)c1 [Compound 9c] | 1.95 (≈ 7.98 µM) | 0.49 (≈ 2.01 µM) | 3.9 (≈ 16 µM) | 0.98 (≈ 4.01 µM) | 1.95 (≈ 7.98 µM) | 0.98 (≈ 4.01 µM) | 0.98 (≈ 4.01 µM) | 7.8 (≈ 31.9 µM) | –
4 | COc1ccc(NNC(=O)c2ccccn2)cc1 [Compound 2f] | 1.95 (≈ 8.02 µM) | 0.24 (≈ 0.987 µM) | 0.49 (≈ 2.01 µM) | 0.49 (≈ 2.01 µM) | 1.95 (≈ 8.02 µM) | 0.24 (≈ 0.987 µM) | 1.95 (≈ 8.02 µM) | 0.98 (≈ 4.03 µM) | –
5 | O=C(NNc1ccc(Cl)cc1)c1nc(F)ccc1F [Compound 8e] | – | – | – | – | – | – | – | – | MIC (C. auris AR Bank #383; [9]): 7.8 μg/mL^−1; MIC (C. auris AR Bank #386; [10]): 15.6 μg/mL^−1; MIC (C. auris AR Bank #388; [11]): 15.6 μg/mL^−1; MIC (C. auris AR Bank #387; [12]): 7.8 μg/mL^−1; MIC (C. auris AR Bank #381; [13]): 7.8 μg/mL^−1; MIC (C. auris AR Bank #389; [14]): 7.8 μg/mL^−1; MIC (C. auris AR Bank #382; [15]): 7.8 μg/mL^−1; MIC (C. auris AR Bank #385; [16]): 3.9 μg/mL^−1
6 | O=C(NNc1ccc(F)cc1F)c1cnccn1 [Compound 9g] | 0.98 (≈ 3.92 µM) | 0.49 (≈ 1.96 µM) | 0.49 (≈ 1.96 µM) | 0.49 (≈ 1.96 µM) | 3.9 (≈ 15.6 µM) | 0.49 (≈ 1.96 µM) | 1.95 (≈ 7.79 µM) | 0.98 (≈ 3.92 µM) | –
7 | COc1ccc(NNC(=O)c2cnccn2)cc1 [Compound 9f] | 0.98 (≈ 4.01 µM) | 0.49 (≈ 2.01 µM) | 0.98 (≈ 4.01 µM) | 1.95 (≈ 7.98 µM) | 1.95 (≈ 7.98 µM) | 0.98 (≈ 4.01 µM) | 0.98 (≈ 4.01 µM) | 0.98 (≈ 4.01 µM) | –
8 | O=C(NNc1ccc(Cl)cc1)c1ccc(F)cn1 [Compound 3e] | – | – | – | – | – | – | – | – | MIC (C. auris AR Bank #383; [9]): 3.9 μg/mL^−1; MIC (C. auris AR Bank #386; [10]): 7.8 μg/mL^−1; MIC (C. auris AR Bank #388; [11]): 7.8 μg/mL^−1; MIC (C. auris AR Bank #387; [12]): 7.8 μg/mL^−1; MIC (C. auris AR Bank #381; [13]): 7.8 μg/mL^−1; MIC (C. auris AR Bank #389; [14]): 7.8 μg/mL^−1; MIC (C. auris AR Bank #382; [15]): 7.8 μg/mL^−1; MIC (C. auris AR Bank #385; [16]): 1.95 μg/mL^−1
